From patent US7534436B2, “Peptide fragments of the harp factor inhibiting angiogenesis” (Centre National de la Recherche Scientifique (C.N.R.S.), priority 2002, dated 2009)
Where a SMILES comes first, the peptide text is derived from it.

What was measured:
[1] = tested on: angiogenesis induced by HARP; assay: In vivo Matrigel angiogenesis model, angiogenesis induced by HARP; design: species or system Swiss mice; details: peptide 1 μM with HARP 5 nM in Matrigel, subcutaneous; day 7
Method: (§1) FIG. 6 represents the inhibition by the HARP peptides 13-39 and 65-97 of the angiogenesis induced by HARP in an in vivo model. Three hundred microlitres of Matrigel® incubated with 5 nM of HARP in the presence or absence of the HARP peptides 13-39 and 65-97 used at a concentration of 1 μM are injected subcutaneously into a mouse. The control of the experiment is achieved using FGF-2. Seven days later the mice are sacrificed and the Matrigel® is removed. Sections having a thickness of 8 μM are produced. The sections are then stained with Trichrome from Gomori. The number of cells which have invaded the Matrigel® is quantified by image analysis with NIH software. The results represent the mean value of an analysis of 7 sections per mouse (n=4 mice/group). The bars represent the standard margins for error (**, p<0.01).
(§2) This experiment was carried out using an in vivo angiogenesis model in mice. This experimental model consists in injecting Matrigel® containing a substance to be analysed for its angiogenesis stimulating or inhibiting properties. […]
(§3) The mice are sacrificed seven days after the injection of the Matrigel®. […] The number of endothelial cells which have invaded the Matrigel® is quantified by image analysis using NIH imaging software.

[2] = tested on: angiogenesis induced by FGF-2; assay: In vivo Matrigel angiogenesis model, angiogenesis induced by FGF-2 (specificity control); design: species or system Swiss mice; details: peptide 1 μM with FGF-2 10 nM in Matrigel; day 7
Method: as §1, §2, §3

[3] = tested on: endothelial cells which have invaded the Matrigel; assay: In vivo Matrigel angiogenesis model, substance used alone; design: species or system Swiss mice; details: day 7; for effect on angiogenesis when peptide used alone: peptide 1 μM alone in Matrigel; for increase in the number of endothelial cells by comparison with Matrigel used by itself: HARP 5 nM or FGF-2 10 nM in Matrigel
Method: as §1
This experiment was carried out using an in vivo angiogenesis model in mice. This experimental model consists in injecting Matrigel® containing a substance to be analysed for its angiogenesis stimulating or inhibiting properties. Four Swiss mice (Janvier, Genest St Isle, France) per group are injected with 300 μl of Matrigel® previously incubated with either 5 nM of HARP, 1 μM of HARP peptide 13-39 or 65-97, or with a mixture of HARP (5 nM) and HARP peptides 13-39 or 65-97 (1 μM). The control of the specificity of the inhibition is carried out using another angiogenic factor, FGF-2, tested either by itself at a concentration of 10 nM or supplemented by the HARP peptides 13-39 or 65-97 used at a concentration of 1 μM.
The mice are sacrificed seven days after the injection of the Matrigel®. This latter is removed and frozen in liquid nitrogen. Sections 8 μM thick are then effected with a cryostat. The sections are then stained with Trichrome from Gomori. The number of endothelial cells which have invaded the Matrigel® is quantified by image analysis using NIH imaging software.

[4] = tested on: NIH 3T3 cells stimulated by HARP; details: 24 h, 10 μM
Method: After 24 hours' incubation the cellular proliferation is estimated by measurement of the tritiated thymidine incorporated by the cells.
Fibroblast cells of type NIH 3T3 are cultured at a density of 3×10^4 cells per cm^2 in DMEM culture medium supplemented with 10% of foetal calf serum. […] After this period of incubation, 0.5 μCi of [methyl-^3H]thymidine is added and 6 hours afterwards the cells are fixed by a 10% solution of trichloroacetic acid. The radioactivity incorporated by the cells is then counted by liquid scintillation after having effected a cell lysis with a solution of sodium hydroxide at a concentration of 0.1 N.

[5] = tested on: PC3 cells (line resulting from prostate cancer); assay: Tumour growth after injection of PC3 cells into nude mice; format: in vivo; details: 5 mg/kg daily injection in the region of the tumour
Method: Two million PC3 cells are injected into groups of 5 nude mice treated or not by daily injection in the region of the tumour with PBS (control) or with the HARP peptide 111-136 at a concentration of 5 mg/kg. The tumour growth for each group of animals is evaluated by measurement of the size of the tumour on day 9, 13, 16, 20, 23 and 27.
The capacity of the peptide P111-136 (SEQ ID NO: 4) to inhibit tumour angiogenesis has been tested by inducing tumour growth by injection of PC3 cells into nude mice in the presence or absence of peptide P111-136. 2×10^6 PC3 cells are injected into groups of 5 nude mice (nude/nude, Laboratoire IFFA CREDO) treated or not by injection in the region of the tumour of 100 μl per day of a solution of PBS (control group) or by a solution of peptide P111-136 diluted in PBS at a concentration of 5 mg/kg. On day 9, 13, 16, 20, 23 and 27 the size of the tumour is measured with the aid of a calliper gauge. The results are presented in FIG. 3 and indicate that the HARP peptide 111-136 used at a dose of 5 mg per kg induces an inhibition of the growth of the tumours.

[6] = tested on: endothelial cells in the tumour (PC3); assay: Tumour angiogenesis in PC3 tumours of nude mice (isolectin B4 staining of endothelial cells, image analysis); format: in vivo; details: day 27; 5 mg/kg daily injection in the region of the tumour
Method: Two million PC3 cells are injected into groups of mice treated or not by daily injection in the region of the tumour with PBS (control) or with the peptide 111-136 at a concentration of 5 mg/kg. The mice are sacrificed on day 27. The quantification of the angiogenesis is effected on a section after immunohistological analysis using isolectine Bandeiraea Simplicifolia as a specific marker of the endothelial cells and image analysis. The values presented in the histogram represent the mean value obtained by analysing three independent sections resulting from each of six tumours obtained in each condition.
On day 27, the tumours are removed and freezing sections of 5 μm are produced. […] This lectin is then detected by immunomarking with the aid of a sandwich of specific antibodies marked with alkaline phosphatase. After incubation with a substrate of alkaline phosphatase (Vector Red substrate), the endothelial cells are stained red. The quantification of the number of endothelial cells in the tumour is carried out by image analysis (NIH image) by analysing the 6 tumours on 3 independent sections of one and the same tumour.

[7] = Bernard-Pierrot et al 2002; cited from earlier work
[8] = target: anaplastic lymphoma kinase (ALK) (Homo sapiens, UniProt Q9UM73); details: high affinity tyrosine kinase receptor; Stoica et al, 2001; cited from earlier work
anaplastic lymphoma kinase (ALK), sequence (Q9UM73 19-1620, species assumed): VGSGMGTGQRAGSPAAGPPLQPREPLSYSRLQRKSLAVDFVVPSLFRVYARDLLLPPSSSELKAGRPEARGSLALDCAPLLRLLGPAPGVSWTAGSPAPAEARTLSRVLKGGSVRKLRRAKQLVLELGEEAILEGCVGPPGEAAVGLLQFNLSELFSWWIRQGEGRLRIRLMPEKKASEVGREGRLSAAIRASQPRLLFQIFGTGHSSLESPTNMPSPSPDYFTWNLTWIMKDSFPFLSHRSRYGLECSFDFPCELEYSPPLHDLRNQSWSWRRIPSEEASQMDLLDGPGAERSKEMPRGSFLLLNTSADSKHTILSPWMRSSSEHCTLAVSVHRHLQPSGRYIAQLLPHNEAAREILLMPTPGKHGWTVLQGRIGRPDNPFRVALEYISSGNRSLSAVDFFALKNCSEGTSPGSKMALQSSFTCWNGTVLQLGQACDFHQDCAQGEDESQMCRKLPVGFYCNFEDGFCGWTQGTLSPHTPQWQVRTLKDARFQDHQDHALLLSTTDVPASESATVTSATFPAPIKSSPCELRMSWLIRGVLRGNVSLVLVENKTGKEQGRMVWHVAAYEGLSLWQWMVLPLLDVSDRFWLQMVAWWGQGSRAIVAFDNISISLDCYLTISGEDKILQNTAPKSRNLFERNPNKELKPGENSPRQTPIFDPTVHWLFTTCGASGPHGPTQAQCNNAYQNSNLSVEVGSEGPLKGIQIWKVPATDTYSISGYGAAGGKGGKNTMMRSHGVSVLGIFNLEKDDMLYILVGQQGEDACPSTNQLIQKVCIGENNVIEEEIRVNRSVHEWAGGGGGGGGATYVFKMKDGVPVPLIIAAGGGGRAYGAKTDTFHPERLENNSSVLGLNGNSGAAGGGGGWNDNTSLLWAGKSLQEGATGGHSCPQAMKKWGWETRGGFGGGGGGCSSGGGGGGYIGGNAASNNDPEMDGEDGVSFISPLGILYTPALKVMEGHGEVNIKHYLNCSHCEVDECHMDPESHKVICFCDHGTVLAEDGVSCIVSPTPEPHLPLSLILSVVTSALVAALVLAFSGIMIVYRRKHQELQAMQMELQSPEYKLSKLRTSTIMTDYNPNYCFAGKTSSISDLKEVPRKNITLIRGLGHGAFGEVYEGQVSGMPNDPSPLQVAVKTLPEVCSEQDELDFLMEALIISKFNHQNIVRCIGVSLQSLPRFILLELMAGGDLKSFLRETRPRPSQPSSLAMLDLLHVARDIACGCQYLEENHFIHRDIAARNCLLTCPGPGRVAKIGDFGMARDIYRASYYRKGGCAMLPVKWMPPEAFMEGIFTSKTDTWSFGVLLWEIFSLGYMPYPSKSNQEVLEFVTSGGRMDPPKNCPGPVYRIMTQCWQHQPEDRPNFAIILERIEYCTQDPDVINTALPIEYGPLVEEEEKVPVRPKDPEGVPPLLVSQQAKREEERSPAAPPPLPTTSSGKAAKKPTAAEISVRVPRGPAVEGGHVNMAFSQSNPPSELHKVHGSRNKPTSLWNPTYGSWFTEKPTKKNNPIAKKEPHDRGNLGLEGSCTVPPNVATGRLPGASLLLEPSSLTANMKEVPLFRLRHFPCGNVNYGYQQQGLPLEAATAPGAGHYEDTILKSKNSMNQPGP

Molecule	effect on angiogenesis induced by HARP [1]	effect on angiogenesis induced by FGF-2 [2]	effect on angiogenesis when peptide used alone [3]	increase in the number of endothelial cells by comparison with Matrigel used by itself [3] [times]	further results
CC(C)C[C@H](NC(=O)CNC(=O)[C@H](CS)NC(=O)[C@H](CC(=O)O)NC(=O)CNC(=O)[C@H](CO)NC(=O)[C@@H](NC(=O)[C@@H]1CCCN1C(=O)[C@@H](NC(=O)[C@H](CS)NC(=O)[C@@H](NC(=O)[C@H](CO)NC(=O)[C@H](Cc1c[nH]c2ccccc12)NC(=O)[C@H](CCC(N)=O)NC(=O)[C@H](Cc1c[nH]c2ccccc12)NC(=O)[C@H](CCC(=O)O)NC(=O)CNC(=O)[C@H](CS)NC(=O)[C@H](CC(=O)O)NC(=O)[C@@H](N)CO)C(C)C)C(C)C)[C@@H](C)O)C(=O)NCC(=O)N[C@H](C(=O)N[C@@H](CCCNC(=N)N)C(=O)N[C@@H](CCC(=O)O)C(=O)NCC(=O)N[C@H](C(=O)N[C@@H](CCCNC(=N)N)C(=O)N[C@H](C(=O)O)[C@@H](C)O)[C@@H](C)O)[C@@H](C)O [peptide 13-39] (H-SDCGEWQWSVCVPTSGDCGLGTREGTRT-OH; N-terminus and C-terminus assumed)	totally inhibit	no effect	No significant effect		inhibition of the HARP activity (induction of cell proliferation) [4]: 60%
CC(C)C[C@H](NC(=O)[C@H](C)NC(=O)[C@H](CCCNC(=N)N)NC(=O)[C@H](CCCCN)NC(=O)[C@H](CC(C)C)NC(=O)[C@H](CO)NC(=O)CNC(=O)[C@@H](NC(=O)[C@H](CCCNC(=N)N)NC(=O)[C@@H](NC(=O)[C@H](CCCCN)NC(=O)[C@H](CC(C)C)NC(=O)[C@H](C)NC(=O)[C@@H](NC(=O)[C@H](CC(N)=O)NC(=O)[C@H](CC(C)C)NC(=O)[C@H](CC(=O)O)NC(=O)[C@H](CS)NC(=O)[C@H](CCC(=O)O)NC(=O)CNC(=O)[C@H](Cc1c[nH]c2ccccc12)NC(=O)[C@H](C)NC(=O)[C@H](CCC(N)=O)NC(=O)[C@H](Cc1ccccc1)NC(=O)[C@H](CCC(N)=O)NC(=O)[C@H](Cc1ccc(O)cc1)NC(=O)[C@H](CCCCN)NC(=O)[C@H](CS)NC(=O)[C@H](CCC(=O)O)NC(=O)[C@H](C)N)[C@@H](C)O)[C@@H](C)O)[C@@H](C)O)C(=O)N[C@@H](Cc1c[nH]cn1)C(=O)N[C@@H](CC(N)=O)C(=O)N[C@@H](C)C(=O)O [peptide 65-97] (H-AECKYQFQAWGECDLNTALKTRTGSLKRALHNA-OH; N-terminus and C-terminus assumed)	totally inhibit	no effect	No significant effect		
FGF-2: another angiogenic factor, used as control of the specificity of the inhibition				5.8	
KLTKPKPQAESKKKKKEGKKQEKMLD (listed as Homo sapiens) [peptide 111-136, C-terminal peptide fragment of HARP, amino acids 111-136, acts on the ALK receptor]					rate of tumour growth, times less than in untreated mice ([5]; PC3 in nude mice): 4 times; mean size of the tumours smaller than in untreated mice ([5]; day 27): 80%; reduction in the intra-tumoral vessels [6]: 55%; mitogenic / angiogenic activity [7]: neither mitogenic n or angiogenic
HARP: angiogenic heparin binding growth factor, mature protein of 136 or 139 amino acids (protein, UniProt P21246 33-168, looked up) Pleiotrophin: GKKEKPEKKVKKSDCGEWQWSVCVPTSGDCGLGTREGTRTGAECKQTMKTQRCKIPCNWKKQFGAECKYQFQAWGECDLNTALKTRTGSLKRALHNAECQKTVTISKPCGKLTKPKPQAESKKKKKEGKKQEKMLD				3	Kd [8]: 0.05 nM
